The values below come from patent publication US11478493B2, “Fabrication and application of a hetero-targeted nano-cocktail with traceless linkers” (priority 2019, dated 2022).

The assay deals with SKOV-3 cells. Nature of the assay: Cytotoxicity assay (MTT) against SKOV-3 cells. Format: cell-based, Human. To be noted: SKOV-3, 72 hours. Here is the method:
Human ovarian cancer cells, SKOV-3 and SKOV-3/Luc cells, were cultured in GIBCO™ DMEM supplemented with 10% FBS, 100 units/mL penicillin, and 100 μg/mL streptomycin at 37° C. in […] culture flasks under a humidified atmosphere of 5% CO2. Cells were sub-cultured when the cell confluence reached ˜80%.
The anticancer activities of polymer nanogels against SKOV-3 cells were evaluated by MTT assay. Cells were seeded in 96-well plates at a density of 5,000 cells/well for 24 hours prior to the test at 37° C. with 5% CO2. Then the cells were treated with varying concentrations of PTX/DOX or polymer nanogels in fresh medium and further incubated for 72 hours. In the control group, cells were allowed to grow without any treatment. After that, the medium was replaced with 100 μL fresh medium containing MTT reagent (final concentration 1 mg/mL) and cells were further incubated for 4 hours. The purple MTT crystal was dissolved with 100 μL MTT stop solution and the optical density at 595 nm was recorded on a microplate reader (ELx808™ Absorbance Microplace Reader, Bio-Tech Instrument, Inc.).

For orientation: IC50 means the midpoint of a concentration-inhibition curve. `CC(=O)O[C@H]1C(=O)[C@@]2(C)[C@H]([C@H](OC(=O)c3ccccc3)[C@]3(O)C[C@H](OC(=O)[C@H](O)[C@@H](NC(=O)c4ccccc4)c4ccccc4)C(C)=C1C3(C)C)[C@]1(OC(C)=O)CO[C@@H]1C[C@@H]2O` [PTX, paclitaxel] gave an IC50 (Homo sapiens, SK-OV-3, PTX, PPP and PPPM nanogels) of 30.6 nM. Consider `COc1cccc2c1C(=O)c1c(O)c3c(c(O)c1C2=O)C[C@@](O)(C(=O)CO)C[C@@H]3O[C@H]1C[C@H](N)[C@H](O)[C@H](C)O1` [DOX, doxorubicin], for which, under “DOX, PPD and PPDA nanogels”, inhibition was half-maximal at 582 nM (IC50).
